# Results taken from patent publication US6440980B1, “Synergistic inhibition of viral replication by long-chain hydrocarbons and nucleoside analogs” (Avanir Pharmaceuticals, priority 1996, dated 2002).
# Where two headings read alike, the source gives them in different places.
# Experiments:
# Fetal Foreskin Cells = test: Cell viability by trypan blue exclusion, fetal foreskin cells; format: cell-based, human; conditions: for Fetal Foreskin Cells No. Viable: 9 mM n-docosanol in 1.4 mM surfactant (4:1 w:w), trypan blue exclusion; for Fetal Foreskin Cells % Control: 9 mM n-docosanol in 1.4 mM surfactant, control = media only
# Description: Typical data are presented in Table 3, showing that the total number of viable Vero cells and foreskin fibroblasts was unchanged after 24 hr to 72 hr incubation with the aliphatic alcohol suspension.
# B cell hybridoma (MBI-9) = test: 3H-thymidine incorporation into DNA of B cell hybridoma; format: cell-based, murine; conditions: Mus musculus, 48 hr incubation, read-out: IC50 estimated by extrapolation
# [1] = test system: human foreskin fibroblasts; test: Cell proliferation (cytostasis), sulforhodamine staining; format: cell-based; conditions: 1,000 cells/well, 96-hours incubation
# Description: The effects of n-docosanol and n-docosane suspensions on cell proliferation (cytostasis) were quantitated using the sulforhodamine staining assay on cultures of human foreskin fibroblasts incubated in 96-well plates.
# Foreskin fibroblasts were plated with or without aliphatic alcohol suspensions or control surfactant suspensions at 1,000 cells/well (FIG. 6A and FIG. 7) or at 30,000 cells/well (FIG. 6B) in 96 well plates. After incubation for 72 hr or 96 hr at 37° C., cells were precipitated with trichloroacetic acid, stained with sulforhodamine and quantitated by measuring the OD540 in a microtiter plate reader.
# all cell lines tested = test: Cytotoxicity in mammalian cell cultures; conditions: read-out: IC50 (cellular toxicity by chain length)
# Text: Three assays were used to quantitate the effects of aliphatic alcohols on cell survival and proliferation: 1) counting cells with a hemocytometer and determining the number of cells that exclude trypan blue; 2) measuring the incorporation of ^3H-thymidine into cellular DNA by adding ^3H-thymidine (from New England Nuclear) to the culture medium, lysing the cells with water and harvesting the DNA onto filter paper; and 3) measuring total cellular protein using a sulforhodamine assay adapted for use in 96-well microtiter plates (Skehan et al., J. Natl. Cancer Inst. […] All of these methods are well known cell viability and cytotoxicity assays.
# HSV-2 [2] = test: Topical treatment of HSV-2 in guinea pig model, number of vesicles (Example 9); format: in vivo, hairless guinea pigs; conditions: mean; for Number of Vesicles Day 2: 48 hr post-inoculation; for Number of Vesicles Day 3: 72 hr post-inoculation; for Number of Vesicles Day 4: 96 hr post-inoculation
# HSV-2 [3] = test: Cutaneous HSV-2 model in hairless guinea pigs, combination cream (Example 15); format: in vivo
# HSV-1 = HSV-1 PFU production in Vero cell cultures; format: cell-based, HSV-1 (MacIntyre strain)
# [4] = test system: Varicella Zoster Virus (VZV); test: VZV infectious center assay in MRC-5 cells; format: cell-based, human varicella zoster virus (Ellen strain); conditions: for IC per Culture × 10^−4: no ACV, medium only 35
# Cytomegalovirus (CMV) = test: CMV infectious center assay in MRC-5 cells; format: cell-based, human cytomegalovirus (Towne strain)
# vaccinia virus = test: microbe, parasite or virus in culture; format: cell-based, vaccinia virus (WR strain); conditions: cultures that lacked PFA; 15 mM n-docosanol
# Vero cells = conditions: African green monkey, 9 mM
# [5] = male, hairless, guinea pig, in vivo, 2 day
# [6] = test system: Early viral protein synthesis; conditions: Katz et al. 1991; cited from earlier work
# HSV-2 [7] = test: Inhibition of HSV-2 plaque formation in Vero cells
# [8] = Inflammation or toxicity at treated skin sites (Example 15); conditions: 96 hours, alone or in combination
# [9] = Human betaherpesvirus 5, MRC5, read-out: % Inhibition of infected cells
# [10] = Human alphaherpesvirus 2, Vero, read-out: Percent Inhibition of Plaque Formation
smiles,measurement,setting,value
CCCCCCCCCCCCCCCCCCCCCCO [n-docosanol],Fetal Foreskin Cells No. Viable,Fetal Foreskin Cells; 24 hr,2.41 × 10^5
same,Fetal Foreskin Cells No. Viable,Fetal Foreskin Cells; 48 hr,2.78 × 10^5
same,Fetal Foreskin Cells No. Viable,Fetal Foreskin Cells; 72 hr,2.72 × 10^5
same,Fetal Foreskin Cells % Control,Fetal Foreskin Cells; 24 hr,131%
same,Fetal Foreskin Cells % Control,Fetal Foreskin Cells; 48 hr,118%
same,Fetal Foreskin Cells % Control,Fetal Foreskin Cells; 72 hr,118%
same,IC50,B cell hybridoma (MBI-9),~20 mM
same,n-docosanol concentration that inhibited proliferation of cells,[1],greater than 3 mM
same,IC50,all cell lines tested,> 15 mM
same,Number of Vesicles Day 2,HSV-2 [2]; 10% w/w cream topically 3X/day from 24 hr post-inoculation,40
same,Number of Vesicles Day 3,HSV-2 [2]; 10% w/w cream topically 3X/day,12
same,Number of Vesicles Day 4,HSV-2 [2]; 10% w/w cream topically 3X/day,3
same,Number of Vesicles Day 2,HSV-2 [2]; 10% w/w cream topically 5X/day,43
same,Number of Vesicles Day 3,HSV-2 [2]; 10% w/w cream topically 5X/day,5
same,Number of Vesicles Day 4,HSV-2 [2]; 10% w/w cream topically 5X/day,3
same,reduction of mean vesicle numbers,"HSV-2 [3]; 96 hours post-HSV-2-inoculation, cream two times daily, untreated mean 27 vesicles",63%
same,mean AUC (mean number of vesicles times hours vesicles were observed),"HSV-2 [3]; cream two times daily, untreated 698",464 vesicle hours
same,inhibition of AUC,HSV-2 [3]; vs untreated AUC 698 vesicle hours,34%
same,fewer HSV-1 PFU than untreated cultures,"HSV-1; 15 mM n-docosanol alone, three days post-infection",about 10 fold
same,inhibition at 3300 µM,"HSV-1; Human alphaherpesvirus 1, Vero, read-out: inhibition of PFU production",55%
same,EC50,"[4]; Human alphaherpesvirus 3, MRC5, MRC-5 cells, read-out: n-docosanol EC50 for inhibition of VZV replication",~10 mM
same,inhibition at 3300 µM,"[4]; Human alphaherpesvirus 3, MRC5, VZV, n-Docosanol 3.3 mM, read-out: % Inhibition of infected cells",40%
same,inhibition at 10000 µM,"[4]; Human alphaherpesvirus 3, MRC5, VZV, n-Docosanol 10 mM, read-out: % Inhibition of infected cells",57%
same,inhibition at 30000 µM,"[4]; Human alphaherpesvirus 3, MRC5, VZV, n-Docosanol 30 mM, read-out: % Inhibition of infected cells",80%
same,IC per Culture × 10^−4,"[4]; VZV, n-Docosanol 3.3 mM",21 × 10^−4
same,IC per Culture × 10^−4,"[4]; VZV, n-Docosanol 10 mM",15 × 10^−4
same,IC per Culture × 10^−4,"[4]; VZV, n-Docosanol 30 mM",7 × 10^−4
same,inhibition at 3300 µM,Cytomegalovirus (CMV); [9],20%
same,inhibition at 10000 µM,Cytomegalovirus (CMV); [9],60%
same,inhibition at 30000 µM,Cytomegalovirus (CMV); [9],85%
same,EC50,"Cytomegalovirus (CMV); Human betaherpesvirus 5, MRC5, read-out: n-docosanol EC50 for inhibition of CMV replication, MRC-5 cells",~10 mM
same,inhibition of vaccinia virus replication (in words),vaccinia virus,does not inhibit replication of vaccinia virus
same,Vero Cells % Control,Vero cells; 24 h,101%
same,Vero Cells No. Viable,Vero cells; 24 h,7.48 × 10^5
same,Vero Cells % Control,Vero cells; 48 h,137%
same,Vero Cells No. Viable,Vero cells; 48 h,8.69 × 10^5
same,Vero Cells % Control,Vero cells; 72 h,120%
same,Vero Cells No. Viable,Vero cells; 72 h,8.61 × 10^5
same,Irritation Score Day 2,[5],0
same,inhibition of early viral protein synthesis,[6],more than 80%
same,fewer plaques than untreated or PLURONIC F-68-treated controls,"HSV-2 [7]; 3 mM n-docosanol, without ACV",40%
same,EC50,"HSV-2 [7]; Human alphaherpesvirus 2, Vero, read-out: 50% Inhibition Concentration (mM)",8.6 mM
same,EC50,"HSV-2 [7]; Human alphaherpesvirus 2, Vero, read-out: EC50 of plaque formation inhibition, octoxynol (TRITON X-100) suspension",~4.5 mM
same,inhibition at 1000 µM,HSV-2 [7]; [10],14%
same,inhibition at 2000 µM,HSV-2 [7]; [10],40%
same,inhibition at 4000 µM,HSV-2 [7]; [10],36%
same,inhibition at 8000 µM,HSV-2 [7]; [10],44%
same,inhibition at 15000 µM,HSV-2 [7]; [10],66%
same,EC50,"HSV-2 [7]; Human alphaherpesvirus 2, Vero, read-out: amount of n-docosanol required for 50% inhibition of plaque production, after increasing the ratio of surfactant to n-docosanol",3 mM
same,EC50,"HSV-2 [7]; Human alphaherpesvirus 2, Vero, read-out: amount of n-docosanol required for 50% inhibition of plaque production, before increasing the ratio of surfactant to n-docosanol",15 mM
same,EC50,"HSV-2 [7]; Human alphaherpesvirus 2, Vero, read-out: effective concentration required to inhibit plaque formation by 50% (EC50), surfactant suspension, Example 5",9 mM
same,EC50,"HSV-2 [7]; Human alphaherpesvirus 2, Vero, read-out: n-docosanol EC50, HSV-2 plaque formation, in conjunction with ACV in the range of 0.2-10 μM",2 to 3 mM
same,EC50,"HSV-2 [7]; Human alphaherpesvirus 2, Vero, read-out: n-docosanol EC50, HSV-2 plaque formation, used alone",2 to 3 mM
same,n-docosanol concentrations inhibiting plaque formation relative to octoxynol control,HSV-2 [7]; octoxynol (TRITON X-100) suspension,greater than or equal to 2 mM
same,induced inflammation or toxicity,[8],not detected
